Holding throughout (assay): inhibition of tumour cell growth, NCI panel, 48 h
The test system of assay [1] is DLD-1 colon.
Assay [2] concerns DMS 273 small cell lung.
For assay [3], the system named is LXFL 529 NSCLC.
The test system of assay [4] is XF 498 CNS.
In assay [5] the test system is MDA-N.
Assay [6] relates to M19-MEL melanoma.
For assay [7], the system named is HOP-18 NSCLC.
The subject of assay [8] is SNB-78 CNS.

SMILES strings stand for the structures. “And” between values parts separate entries of the source, which are not always exact repeats. Equal values may be shown once.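 Values below derive from 48-hour exposures of cells grown in 96-well plates, with endpoints linearly interpolated between the two concentrations bracketing the appropriate inhibition level. Here, GI50 denotes the concentration required for 50% inhibition of growth. At the TGI there is no net growth.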 The source made the active and inactive calls. Cut-off read from the data, not from the text of the source: active = GI50 below about 0.43 µM; inactive = the rest.

The text below walks through data of PubChem BioAssay (NCI).

Regarding `CC(=O)[CH-]C(C)=O.CC(=O)[CH-]C(C)=O.CC(=O)[CH-]C(C)=O.[Ga+3]`, the GI50 in assay [1], in assay [2], in assay [3] and in assay [4] was more than 100 µM in each case. Further, the TGI in assay [1], in assay [2], in assay [3] and in assay [4] was more than 100 µM in each case.

With `COC1=C(OC)[C@]2(OC)c3c(O)c(OC)c4c(c3O[C@@]23O[C@@H](c2ccccc2)CC=C3C1=O)[C@@H](OC)C[C@H](c1ccccc1)O4`, in assay [5], the GI50 was 0.34 µM and the TGI was 1.16 µM.

The compound `COc1ccc(OC)c(Cc2cnc3nc(N)nc(N)c3c2C)c1` displayed a TGI in assay [5] of more than 57.7 µM.

Consider `O=[N+]([O-])/C=C/c1ccc(Cl)cc1Cl`, for which the TGI was 84.4 µM in assay [1], 29.7 µM in assay [2], 27.1 µM in assay [3] and 19.5 µM in assay [6].

For `CN1CCCC1c1cccnc1.O=C(O)c1ccccc1O.O=C([O-])c1ccccc1[OH2+].O=C([O-])c1ccccc1[OH2+].[Mn+2]` (centres undefined), in assay [5], the GI50 is more than 100 µM and the TGI is more than 100 µM.

Regarding `CC(=O)CC(=O)CCC(=O)Nc1cccc(C(F)(F)F)c1`, the TGI in assay [1], in assay [2], in assay [7], in assay [3], in assay [8] and in assay [4] was more than 100 µM in each case.

`CC(=O)OCC(CC[CH2][Sn]([Cl])([Cl])[c]1ccccc1)OC(C)=O` (centres undefined): the GI50 in assay [1] is 21.2 µM; in assay [2] it was 20.6 µM; in assay [7], 16.5 µM; in assay [3] it was 14 µM; in assay [6] it was 25.1 µM; in assay [8], 27.5 µM. Besides, the GI50 in assay [4] is 17.8 µM. Besides, the TGI in assay [1] stood at 47.2 µM; in assay [2], 43.3 µM; in assay [7], 40 µM; in assay [3], 27 µM; in assay [6], 62.1 µM; in assay [8], 48.7 µM. The compound also registered a TGI in assay [4] of 32.2 µM.

Turning to `O=C(CO)C1CC2C=CC1C2` (centres undefined), the TGI in assay [2], in assay [3], in assay [6], in assay [8] and in assay [4] was more than 100 µM each time.

`C[P+]1(c2ccccc2)CCCCC1`: the TGI in assay [1], in assay [2], in assay [3], in assay [6] and in assay [8] was more than 100 µM throughout.

In turn, `O=c1[nH]c(=S)[nH]c(-c2ccccc2)c1Cc1c(O)ccc2ccccc12` gave a TGI in assay [5] of 89.5 µM.

As for `Nc1nc(C(=O)O)c(N=Nc2ccccc2)c(=O)[nH]1`, the TGI in assay [5] is more than 100 µM.

On to `CN(C)c1nc(N)c(C#N)c(C#N)c1C#N`, for which the TGI in assay [5] is more than 10 µM.

As to `C=C1C=CC2(Br)OC3CC(C)(Cl)C(Br)CC13C2(C)C` (centres undefined), the TGI in assay [1] was more than 100 µM; in assay [2] it was more than 100 µM; in assay [3], more than 100 µM; in assay [6], 44.9 µM; in assay [8] it was 61.7 µM; in assay [4] it was 27.9 µM.

`O=C(c1c(O)cc(O)cc1O)C1Cc2ccccc21` (centres undefined): the TGI in assay [1], in assay [2], in assay [7], in assay [3], in assay [6] and in assay [8] was more than 100 µM in each case.

As for `CCOC(=O)C(CCCNC(=O)OC(C)(C)C)N(Cc1ccc(OC)cc1OC)C(=O)CC(=O)CP(=O)(OCC)OCC` (centres undefined), the TGI in assay [1], in assay [2], in assay [7], in assay [3] and in assay [6] was more than 100 µM throughout.

For the compound `c1ccc(CN2COc3c(ccc4c5c(ccc34)CN(Cc3ccccc3)CO5)C2)cc1`, the TGI in assay [1], in assay [7], in assay [3], in assay [6], in assay [5] and in assay [8] was more than 100 µM in each case.

Take `COc1c(OC(C)C)cc2cc(O)c(C(=O)NC3Cc4ccc(c(Cl)n4)O[C@@H]4C=C5C#C/C(=C\C#CC6OC56C4OC4CC(C)(O)C(O)C(C)O4)C(OC4CC(O)C(N(C)C)C(C)O4)COC3=O)cc2c1OC` (some centres undefined): the GI50 is 8.16 µg/mL in assay [1], 0.279 µg/mL in assay [2], 1.68 µg/mL in assay [6] and 37.5 µg/mL in assay [8]. For the same compound, the TGI in assay [1] was 37.5 µg/mL; in assay [2], 12.7 µg/mL; in assay [6], 37.5 µg/mL; in assay [5], more than 36.3 µM; in assay [8], 37.5 µg/mL. Also, the outcome in assay [7], in assay [3] and in assay [4] was inactive.

On to `Cc1ccc(C2=Nc3ccccc3SC(c3cccc4c3OCO4)C2)cc1` (centres undefined), for which the TGI in assay [1] turned out to be 90.3 µM; in assay [2], 40.2 µM; in assay [7] it was 38.4 µM; in assay [3], 28.9 µM; in assay [6] it was 36.3 µM; in assay [4], 29 µM.

Consider `O=C(Cc1ccccc1)C(c1ccccc1)S(=O)(=O)c1ccccc1` (centres undefined), for which the TGI in assay [1], in assay [2], in assay [7], in assay [3], in assay [6] and in assay [8] was more than 100 µM in each case. In assay [4], this compound displayed a TGI of more than 100 µM.

Consider `CCOC(=O)C(Cc1ccc(N(CCCl)CCCl)cc1)NC(=O)C(Cc1ccccc1)NC(C)=O` (centres undefined), for which the TGI in assay [5] was more than 0.371 µM.

In the case of `[Cl][Cu][Cl]`, in assay [5], the GI50 was more than 10 µM and the TGI is more than 10 µM.

Turning to `C/C(=N\NC(=S)N1CCN(c2ccccn2)CC1)c1ncccn1`, the GI50 is 0.0258 µM in assay [1]; 0.0311 µM in assay [2]; 4.4 µM in assay [7]; 1.54 µM in assay [6]; 0.233 µM in assay [5]. Moreover, the TGI in assay [1] is 4.98 µM and 14.3 µM; in assay [2], 3.71 µM and 15.2 µM; in assay [7] it was 8.39 µM and 20.3 µM; in assay [6] it was 2.67 µM and 11.2 µM; in assay [5], 14.8 µM; in assay [8] it was 23.1 µM. For the same compound, the TGI in assay [4] worked out at 13.8 µM.

As for `CC(C)OC(=O)C1Cc2c([nH]c3ccccc23)C(c2ccccc2)N1` (centres undefined), the TGI in assay [1], in assay [2], in assay [3], in assay [6], in assay [8] and in assay [4] was more than 100 µM throughout.

For the compound `C/C(=N\NC(=O)C(N)=O)c1c(O)cc(C)oc1=O`, the TGI in assay [1], in assay [3], in assay [6] and in assay [8] was more than 100 µM in each case.

`Cc1ccc(S(=O)(=O)NC(=O)OC23COCN2COC3)cc1` displayed a TGI in assay [5] of more than 100 µM.

On to `CC1=NNC(=S)NCCCN2CCN(CCCNC(=S)NN=C(C)C=NNC(=S)NCCCN3CCN(CCCNC(=S)NN=C1)CC3)CC2`, for which the TGI in assay [5] was more than 100 µM.

In turn, `O=[N+]([O-])c1cc(Cc2cc([N+](=O)[O-])c3cccnc3c2O)c(O)c2ncccc12` returned a TGI in assay [5] of more than 80 µM.

As to `O=c1[nH]c2ccccc2n1C1CCN(CCCC(c2ccc(F)cc2)c2ccc(F)cc2)CC1`, the TGI in assay [1] is 13.9 µM; in assay [2], 11.9 µM; in assay [7] it was 29 µM; in assay [3] it was 13.4 µM; in assay [6], 13.1 µM; in assay [5], 21.4 µM. Also, the results for the TGI in assay [8] and in assay [4] were 32 µM and 11.6 µM, respectively.

As for `CC(N)CC(=O)O` (centres undefined), the TGI in assay [1], in assay [2], in assay [7], in assay [3], in assay [6] and in assay [8] was more than 5000 µM in each case.

Consider `COc1c(CC=C(C)C)c(O)c(C(CC(C)C)c2c(O)c(CC=C(C)C)c(O)c(C(C)=O)c2O)c(O)c1C(C)=O` (centres undefined), for which the TGI in assay [1] amounted to 10.9 µM; in assay [2] it was 1.33 µM; in assay [7] it was 14.7 µM; in assay [6], 5.13 µM; in assay [5] it was 8.08 µM; in assay [8] it was 17.5 µM. In assay [4], this compound had a TGI of 2.09 µM.

Regarding `CC1CCC2(C)C(CC=C(C=O)C2(O)C=O)C12CO2` (centres undefined), the TGI in assay [2] was 7.61 µM; in assay [3] it was 3.33 µM; in assay [6], 5.75 µM; in assay [8], 5.46 µM; in assay [4], 7.21 µM.

`Cc1cc2c(c(=O)o1)C1=S(SC(c3ccccc3)=C1)S2` (centres undefined) registered a TGI in assay [5] of more than 100 µM.

For `CC(C)(C)c1cc(C(=O)O)c2c(c1)C(=O)OC2(c1ccccc1)c1ccccc1C(=O)O` (centres undefined), the TGI in assay [1], in assay [2], in assay [7], in assay [3], in assay [6] and in assay [4] was more than 100 µM each time.
